Results from PubChem BioAssay AID540345 (The Scripps Research Institute Molecular Screening Center, 2011).
Active and inactive are the calls of the source. The rule behind the calls is not given here.

Experiments:
Assay in all cases: off-target binding and CYP inhibition panel, profiling panel, selectivity assay for GPR7 antagonist project, biochemical, Ricerca HitProfilingScreen, CYP450, set 2 (AID 540345)
[1] = biological target: 5-hydroxytryptamine receptor 2B (Homo sapiens) (UniProt P41595); conditions: Ricerca radioligand binding/CYP panel; Serotonin (5-Hydroxytryptamine) 5-HT2B; at 10 µM; active compounds read high
Chain of 5-hydroxytryptamine receptor 2B (Homo sapiens) (P41595 whole entry, looked up): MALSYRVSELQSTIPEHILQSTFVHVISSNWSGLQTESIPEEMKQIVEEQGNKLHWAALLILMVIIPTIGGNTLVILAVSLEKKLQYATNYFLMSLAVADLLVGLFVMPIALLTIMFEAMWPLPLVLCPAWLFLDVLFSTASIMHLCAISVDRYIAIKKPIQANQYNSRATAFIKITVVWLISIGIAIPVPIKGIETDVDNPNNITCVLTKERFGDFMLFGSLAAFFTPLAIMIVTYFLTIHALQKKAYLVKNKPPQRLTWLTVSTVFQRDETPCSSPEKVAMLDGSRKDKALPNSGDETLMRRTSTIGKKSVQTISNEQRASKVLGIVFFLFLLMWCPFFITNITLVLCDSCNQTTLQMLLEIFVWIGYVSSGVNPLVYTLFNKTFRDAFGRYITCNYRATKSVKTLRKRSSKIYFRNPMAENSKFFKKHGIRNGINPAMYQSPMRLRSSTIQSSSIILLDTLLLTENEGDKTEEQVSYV

[2] = test system: Adenosine A1; conditions: Ricerca radioligand binding/CYP panel, at 10 µM, active compounds read high
[3] = test system: Adenosine A2A; conditions: Ricerca radioligand binding/CYP panel, at 10 µM, active compounds read high
[4] = test system: Adrenergic alpha1A; conditions: Ricerca radioligand binding/CYP panel, at 10 µM, active compounds read high
[5] = test system: Adrenergic alpha1B; conditions: Ricerca radioligand binding/CYP panel, at 10 µM, active compounds read high
[6] = test system: Adrenergic beta1; conditions: Ricerca radioligand binding/CYP panel, at 10 µM, active compounds read high
[7] = biological target: Alpha-2A adrenergic receptor (Homo sapiens) (UniProt P08913); conditions: Ricerca radioligand binding/CYP panel; Adrenergic alpha2A; at 10 µM; active compounds read high
Chain of Alpha-2A adrenergic receptor (Homo sapiens) (P08913 whole entry, looked up): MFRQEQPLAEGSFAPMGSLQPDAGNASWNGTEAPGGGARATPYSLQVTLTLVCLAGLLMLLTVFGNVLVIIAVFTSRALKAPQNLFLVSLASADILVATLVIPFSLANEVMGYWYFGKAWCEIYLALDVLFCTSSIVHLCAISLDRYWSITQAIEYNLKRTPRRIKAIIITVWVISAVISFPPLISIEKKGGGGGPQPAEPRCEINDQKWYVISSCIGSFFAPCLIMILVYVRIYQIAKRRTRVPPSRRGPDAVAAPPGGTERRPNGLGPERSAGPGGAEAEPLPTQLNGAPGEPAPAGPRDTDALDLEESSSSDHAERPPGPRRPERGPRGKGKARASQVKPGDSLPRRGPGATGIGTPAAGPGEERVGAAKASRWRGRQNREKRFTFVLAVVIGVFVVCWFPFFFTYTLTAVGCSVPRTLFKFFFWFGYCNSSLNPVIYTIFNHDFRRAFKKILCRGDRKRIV

[8] = test system: Alpha-2A adrenergic receptor (Homo sapiens) + Histamine H1 receptor (Homo sapiens) + Mu-type opioid receptor (Homo sapiens); conditions: Ricerca radioligand binding/CYP panel; at 10 µM; active compounds read high
[9] = biological target: Beta-2 adrenergic receptor (Homo sapiens) (UniProt P07550); conditions: Ricerca radioligand binding/CYP panel; Adrenergic beta2; at 10 µM; active compounds read high
Chain of Beta-2 adrenergic receptor (Homo sapiens) (P07550 whole entry, looked up): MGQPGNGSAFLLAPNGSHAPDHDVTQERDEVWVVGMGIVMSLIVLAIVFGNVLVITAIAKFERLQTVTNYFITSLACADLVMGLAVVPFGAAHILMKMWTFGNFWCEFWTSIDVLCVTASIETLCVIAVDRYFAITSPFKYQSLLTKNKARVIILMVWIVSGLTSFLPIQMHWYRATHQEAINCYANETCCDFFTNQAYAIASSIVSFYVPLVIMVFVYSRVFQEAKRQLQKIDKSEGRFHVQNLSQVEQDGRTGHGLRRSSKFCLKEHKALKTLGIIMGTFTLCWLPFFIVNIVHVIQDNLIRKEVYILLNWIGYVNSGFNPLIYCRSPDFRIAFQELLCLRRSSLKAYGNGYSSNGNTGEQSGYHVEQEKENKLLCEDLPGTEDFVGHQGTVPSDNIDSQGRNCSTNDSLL

[10] = test system: CYP450 2C19; conditions: Ricerca radioligand binding/CYP panel, at 10 µM, active compounds read high
[11] = test system: Calcium Channel L-Type; conditions: Ricerca radioligand binding/CYP panel, Dihydropyridine site, at 10 µM, active compounds read high
[12] = test system: Cannabinoid CB1; conditions: Ricerca radioligand binding/CYP panel, at 10 µM, active compounds read high
[13] = biological target: Cytochrome P450 1A2 (Homo sapiens) (UniProt P05177); conditions: Ricerca radioligand binding/CYP panel; CYP450 1A2; at 10 µM; active compounds read high
Chain of Cytochrome P450 1A2 (Homo sapiens) (P05177 whole entry, looked up): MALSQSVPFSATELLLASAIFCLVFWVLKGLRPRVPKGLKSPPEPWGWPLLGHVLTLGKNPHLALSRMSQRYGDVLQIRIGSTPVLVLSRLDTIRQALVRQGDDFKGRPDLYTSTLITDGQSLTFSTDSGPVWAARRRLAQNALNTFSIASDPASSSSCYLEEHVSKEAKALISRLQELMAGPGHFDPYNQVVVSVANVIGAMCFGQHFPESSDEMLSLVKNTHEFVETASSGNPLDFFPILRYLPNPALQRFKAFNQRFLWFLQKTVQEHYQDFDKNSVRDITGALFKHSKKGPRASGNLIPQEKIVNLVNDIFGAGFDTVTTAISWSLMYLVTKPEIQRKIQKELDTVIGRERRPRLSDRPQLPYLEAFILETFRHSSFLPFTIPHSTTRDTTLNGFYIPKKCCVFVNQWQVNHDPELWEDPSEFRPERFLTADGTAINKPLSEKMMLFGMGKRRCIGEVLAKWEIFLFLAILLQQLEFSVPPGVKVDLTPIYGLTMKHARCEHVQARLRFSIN

[14] = biological target: Cytochrome P450 2C9 (Homo sapiens) (UniProt P11712); conditions: Ricerca radioligand binding/CYP panel; CYP450 2C9; at 10 µM; active compounds read high
Chain of Cytochrome P450 2C9 (Homo sapiens) (P11712 whole entry, looked up): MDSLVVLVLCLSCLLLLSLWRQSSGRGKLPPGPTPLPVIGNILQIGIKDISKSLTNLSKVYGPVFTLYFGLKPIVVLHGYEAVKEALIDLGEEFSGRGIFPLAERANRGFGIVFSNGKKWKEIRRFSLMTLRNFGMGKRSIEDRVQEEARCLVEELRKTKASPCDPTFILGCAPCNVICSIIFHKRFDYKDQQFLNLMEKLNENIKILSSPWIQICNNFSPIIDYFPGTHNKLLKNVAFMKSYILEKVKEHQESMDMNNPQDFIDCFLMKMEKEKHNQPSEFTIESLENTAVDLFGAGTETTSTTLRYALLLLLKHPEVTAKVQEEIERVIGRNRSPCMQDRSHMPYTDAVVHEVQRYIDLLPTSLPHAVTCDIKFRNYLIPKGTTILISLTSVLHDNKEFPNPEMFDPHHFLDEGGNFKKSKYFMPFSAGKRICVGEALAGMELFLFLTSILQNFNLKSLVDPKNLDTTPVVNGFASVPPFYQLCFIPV

[15] = biological target: Cytochrome P450 2D6 (Homo sapiens) (UniProt P10635); conditions: Ricerca radioligand binding/CYP panel; CYP450 2D6; at 10 µM; active compounds read high
[16] = biological target: Cytochrome P450 3A4 (Homo sapiens) (UniProt P08684); conditions: Ricerca radioligand binding/CYP panel; CYP450 3A4; at 10 µM; active compounds read high
Chain of Cytochrome P450 3A4 (Homo sapiens) (P08684 whole entry, looked up): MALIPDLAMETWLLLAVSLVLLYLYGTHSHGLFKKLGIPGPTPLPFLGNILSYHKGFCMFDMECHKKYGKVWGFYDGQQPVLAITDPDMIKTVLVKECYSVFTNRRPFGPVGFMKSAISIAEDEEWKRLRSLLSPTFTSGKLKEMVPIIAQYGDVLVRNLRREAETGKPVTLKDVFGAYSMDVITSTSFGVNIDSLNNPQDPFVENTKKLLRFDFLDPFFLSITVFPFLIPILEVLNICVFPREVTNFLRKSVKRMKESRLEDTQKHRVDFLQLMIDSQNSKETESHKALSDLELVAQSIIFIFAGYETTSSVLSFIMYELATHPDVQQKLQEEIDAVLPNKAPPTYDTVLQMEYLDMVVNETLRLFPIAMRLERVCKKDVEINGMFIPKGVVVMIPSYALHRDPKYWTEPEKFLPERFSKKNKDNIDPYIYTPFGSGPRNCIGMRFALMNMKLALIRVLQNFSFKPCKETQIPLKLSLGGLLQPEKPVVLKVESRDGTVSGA

[17] = biological target: D(1A) dopamine receptor (Homo sapiens) (UniProt P21728); conditions: Ricerca radioligand binding/CYP panel; Dopamine D1; at 10 µM; active compounds read high
Chain of D(1A) dopamine receptor (Homo sapiens) (P21728 whole entry, looked up): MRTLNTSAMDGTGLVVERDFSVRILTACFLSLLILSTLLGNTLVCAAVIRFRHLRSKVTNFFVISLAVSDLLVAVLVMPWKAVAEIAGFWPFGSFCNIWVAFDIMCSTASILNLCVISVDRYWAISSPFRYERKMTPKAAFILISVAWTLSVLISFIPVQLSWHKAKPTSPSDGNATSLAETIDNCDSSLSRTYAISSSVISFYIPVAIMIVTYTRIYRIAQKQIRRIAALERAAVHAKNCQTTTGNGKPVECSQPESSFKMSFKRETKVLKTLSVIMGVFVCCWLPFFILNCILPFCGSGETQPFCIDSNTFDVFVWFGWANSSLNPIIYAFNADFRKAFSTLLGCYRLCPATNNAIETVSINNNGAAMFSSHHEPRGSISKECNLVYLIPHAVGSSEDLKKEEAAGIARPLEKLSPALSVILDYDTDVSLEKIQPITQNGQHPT

[18] = test system: Dopamine D2S; conditions: Ricerca radioligand binding/CYP panel, at 10 µM, active compounds read high
[19] = test system: GABAA; conditions: Ricerca radioligand binding/CYP panel, central, at 10 µM, active compounds read high
[20] = test system: Glutamate NMDA; conditions: Ricerca radioligand binding/CYP panel, Phencyclidine site, at 10 µM, active compounds read high
[21] = test system: Histamine H1; conditions: Ricerca radioligand binding/CYP panel, at 10 µM, active compounds read high
[22] = biological target: Muscarinic acetylcholine receptor M2 (Homo sapiens) (UniProt P08172); conditions: Ricerca radioligand binding/CYP panel, at 10 µM, active compounds read high
Chain of Muscarinic acetylcholine receptor M2 (Homo sapiens) (P08172 whole entry, looked up): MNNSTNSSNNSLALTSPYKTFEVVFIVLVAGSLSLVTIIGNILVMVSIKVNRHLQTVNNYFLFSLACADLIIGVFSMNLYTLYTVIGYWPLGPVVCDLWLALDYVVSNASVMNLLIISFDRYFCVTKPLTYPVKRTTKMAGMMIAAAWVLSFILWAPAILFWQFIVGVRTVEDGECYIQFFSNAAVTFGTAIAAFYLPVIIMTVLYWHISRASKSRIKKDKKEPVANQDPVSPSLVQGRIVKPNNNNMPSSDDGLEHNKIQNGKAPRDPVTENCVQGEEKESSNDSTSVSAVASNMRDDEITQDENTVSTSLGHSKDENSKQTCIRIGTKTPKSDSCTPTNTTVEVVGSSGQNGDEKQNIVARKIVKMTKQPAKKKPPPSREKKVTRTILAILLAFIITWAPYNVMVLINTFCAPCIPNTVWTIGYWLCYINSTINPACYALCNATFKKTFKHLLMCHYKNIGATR

[23] = biological target: Muscarinic acetylcholine receptor M3 (Homo sapiens) (UniProt P20309); conditions: Ricerca radioligand binding/CYP panel, at 10 µM, active compounds read high
[24] = test system: Nicotinic Acetylcholine; conditions: Ricerca radioligand binding/CYP panel, at 10 µM, active compounds read high
[25] = test system: Opiate mu (OP3, MOP); conditions: Ricerca radioligand binding/CYP panel, at 10 µM, active compounds read high
[26] = test system: Prostanoid EP4; conditions: Ricerca radioligand binding/CYP panel, at 10 µM, active compounds read high
[27] = test system: Sigma 1; conditions: Ricerca radioligand binding/CYP panel, at 10 µM, active compounds read high
[28] = test system: Sodium Channel; conditions: Ricerca radioligand binding/CYP panel, Site 2, at 10 µM, active compounds read high
[29] = test system: Transporter Norepinephrine (NET); conditions: Ricerca radioligand binding/CYP panel, at 10 µM, active compounds read high
[30] = biological target: Voltage-gated inwardly rectifying potassium channel KCNH2 (Homo sapiens) (UniProt Q12809); conditions: Ricerca radioligand binding/CYP panel; Potassium Channel hERG; at 10 µM; active compounds read high
Chain of Voltage-gated inwardly rectifying potassium channel KCNH2 (Homo sapiens) (Q12809 whole entry, looked up): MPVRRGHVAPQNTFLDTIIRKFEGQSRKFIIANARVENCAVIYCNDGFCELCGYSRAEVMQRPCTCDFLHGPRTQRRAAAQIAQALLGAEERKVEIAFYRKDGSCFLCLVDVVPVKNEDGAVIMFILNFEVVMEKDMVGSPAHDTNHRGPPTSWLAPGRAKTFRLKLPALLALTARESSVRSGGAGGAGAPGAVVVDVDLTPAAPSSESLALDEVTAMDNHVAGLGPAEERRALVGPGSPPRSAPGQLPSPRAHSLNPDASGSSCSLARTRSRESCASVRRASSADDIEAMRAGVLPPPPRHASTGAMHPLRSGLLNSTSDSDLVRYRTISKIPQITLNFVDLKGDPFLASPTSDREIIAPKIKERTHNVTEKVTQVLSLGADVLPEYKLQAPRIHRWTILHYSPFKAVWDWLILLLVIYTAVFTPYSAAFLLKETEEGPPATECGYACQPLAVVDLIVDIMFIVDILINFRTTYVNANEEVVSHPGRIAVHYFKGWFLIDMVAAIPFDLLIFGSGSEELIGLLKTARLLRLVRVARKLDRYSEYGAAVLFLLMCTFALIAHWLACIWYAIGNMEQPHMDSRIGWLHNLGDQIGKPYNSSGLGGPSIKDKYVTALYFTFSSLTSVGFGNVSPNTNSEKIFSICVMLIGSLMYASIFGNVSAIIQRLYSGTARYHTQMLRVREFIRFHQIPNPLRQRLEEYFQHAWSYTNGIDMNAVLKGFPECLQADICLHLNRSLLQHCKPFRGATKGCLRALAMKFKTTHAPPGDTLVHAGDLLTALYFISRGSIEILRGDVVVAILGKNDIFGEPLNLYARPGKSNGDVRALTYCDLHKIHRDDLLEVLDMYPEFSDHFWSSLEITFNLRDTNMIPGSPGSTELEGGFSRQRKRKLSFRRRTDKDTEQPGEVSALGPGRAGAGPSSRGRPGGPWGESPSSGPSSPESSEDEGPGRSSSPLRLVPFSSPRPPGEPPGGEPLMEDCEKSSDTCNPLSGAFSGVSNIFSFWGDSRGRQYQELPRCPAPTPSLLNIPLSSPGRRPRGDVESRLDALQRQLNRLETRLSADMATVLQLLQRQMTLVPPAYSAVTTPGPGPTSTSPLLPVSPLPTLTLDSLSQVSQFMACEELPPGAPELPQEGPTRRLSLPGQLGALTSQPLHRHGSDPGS

`COc1ccc(Oc2c(Cl)cnn(C3c4ccccc4-c4ccccc43)c2=O)cc1` was tested, and the inhibition [1] was 63%, the inhibition [2] was 7% (inactive) and the inhibition [3] was 15% (inactive). The inhibition [4] was -1% (inactive), the inhibition [5] was 8% (inactive) and the inhibition [6] was 7% (inactive). The inhibition [7] was 5% (inactive), the inhibition [8] was 8% (inactive) and the inhibition [9] was 4% (inactive). The inhibition [10] was 51%, the inhibition [11] was 33% (inactive) and the inhibition [12] was 9% (inactive). The inhibition [13] was 67%, the inhibition [14] was 13% (inactive) and the inhibition [15] was 2% (inactive). For the same molecule, the inhibition [16] was 26% (inactive), the inhibition [17] was 14% (inactive) and the inhibition [18] was -1% (inactive). The inhibition ([19]; Flunitrazepam site) was 0% (inactive), the inhibition ([19]; Muscimol site) was 7% (inactive) and the inhibition [20] was -18% (inactive). For the same molecule, the inhibition [21] was 17% (inactive), the inhibition [22] was -2% (inactive) and the inhibition [23] was -1% (inactive). The inhibition [24] was -16% (inactive), the inhibition [25] was 1% (inactive) and the inhibition [26] was 5% (inactive). The inhibition [27] was 6% (inactive), the inhibition [28] was 36% (inactive) and the inhibition [29] was 42% (inactive). For the same molecule, the inhibition [30] was 28% (inactive).
